Key:
HBV pgRNA = HBV pgRNA change from baseline after 4-week treatment course in chronically infected HBV patients; type: in vivo, human; settings: 4 weeks
Method: FIG. 1: HBV pgRNA (log 10 copies/mL) changes from baseline after a 4 week anti-HBV treatment course of FXR agonist EYP001a or placebo in combination with interferon in chronically infected previously untreated HBV patients. PBO: placebo. peg-IFN: pegylated interferon alpha2a. 150 BID: 150 mg twice daily. 300 QD: 300 mg once daily. pgRNA: pregenomic ribonucleic acid.
(§1) HBV chronically infected patients (male (n=39) and female (n=34)) underwent a 4-week treatment course as either daily oral FXR agonist EYP001a monotherapy or placebo or entecavir (ETV) in Part A of the study (n=48) or in combination with interferon (n=23, weekly sub-cutaneous injections of pegylated IFNα2a, PEG-IFN) in Part B. Patient characteristics were: mean age of 39.7 years (range: 19-63); 6 of 73 were HBeAg-positive; 70% treatment naïve; mean baselines HBV DNA 4.2 (±1.5 SD) log 10 IU/mL, HBsAg 3.5 (±0.8 SD) log 10 IU/mL, and genotypes A (25), B (8), C (10), D (7) and E (4).

HBcrAg = HBcrAg change from baseline after 4-week treatment course in chronically infected HBV patients; type: in vivo, human; settings: 4 weeks
Excerpt: PBO: placebo. peg-IFN: pegylated interferon alpha2a. HBcrAg: hepatitis B core-related antigen.
as §1

HBV replication = assay: Synergistic effect of combined treatment on HBV replication markers (pgRNA and HBcrAg) in patients; type: in vivo, human; settings: same dose, same period of 4 weeks, monotherapy
Excerpt: By “a synergistic effect” is intended to refer to an effect for decreasing the HBV replication which is more than the sum of the effects of each molecule alone. HBV replication can be assessed by determining surface HBV antigen (HBsAg), HBeAg, HBV core related antigen (HBcrAg), HBV DNA, HBV pre-genomic RNA, HBV pre-core RNA and/or HBV cccDNA. More particularly, the effect is observed on the pre-genomic RNA (HBV pgRNA) and/or on the hepatitis B core related antigen (HBcrAg).
as §1, with “(4). FXR engagement with all EYP001 doses led to decreases in C4 and increases in FGF19 (data not shown).” for “(4).”
At end of treatment on day 29, 400 mg QD EYP001 decrease the mean HBsAg by −0.1 log 10 IU/mL (p<0.05). […]

FXR = biological target: T1, FXR (Homo sapiens, UniProt Q96RI1); assay: FXR engagement markers (C4, FGF19) in HBV patients; type: in vivo; settings: all EYP001 doses; data not shown
T1 construct: FXR engagement with all EYP001 doses led to decreases in C4 and increases in FGF19; from tissue; host or cells: endogenous FXR in the tissues of treated HBV patients (in vivo clinical study)
T1 sequence (Q96RI1 1-486): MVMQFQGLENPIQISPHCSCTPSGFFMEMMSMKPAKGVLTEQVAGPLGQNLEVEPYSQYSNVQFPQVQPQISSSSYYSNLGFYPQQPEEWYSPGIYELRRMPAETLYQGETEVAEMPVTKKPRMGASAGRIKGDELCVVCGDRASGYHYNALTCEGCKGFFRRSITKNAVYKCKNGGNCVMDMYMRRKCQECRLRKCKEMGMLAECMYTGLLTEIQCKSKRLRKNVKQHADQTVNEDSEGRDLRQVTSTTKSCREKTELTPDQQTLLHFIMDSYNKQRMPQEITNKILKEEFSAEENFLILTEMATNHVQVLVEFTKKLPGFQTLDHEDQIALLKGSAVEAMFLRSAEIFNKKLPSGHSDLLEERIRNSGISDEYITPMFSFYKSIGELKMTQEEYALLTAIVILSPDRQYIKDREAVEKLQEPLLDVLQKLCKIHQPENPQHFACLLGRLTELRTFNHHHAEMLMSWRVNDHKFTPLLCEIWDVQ
Excerpt: as §1

HBV = settings: chronic hepatitis B patients; Erken et al 2018; cited from earlier work
HBsAg = type: in vivo, human; settings: 400 mg QD EYP001, end of treatment day 29, p<0.05
Excerpt: as §1

[1] = human, in vivo, 4 weeks
Method: Therefore, in a particular aspect, EYP001 is administered once a day.

[2] = ETV open-label 0.5 mg/day, end of treatment day 29
[3] = EYP001a 1 × 100 mg/day monotherapy, day 29
[4] = EYP001a 1 × 200 mg/day monotherapy, day 29
[5] = EYP001a 1 × 400 mg/day monotherapy, day 29
[6] = EYP001a 2 × 200 mg/day monotherapy, day 29

C=C1[C@H](CO)[C@@H](O)C[C@@H]1n1cnc2c(=O)[nH]c(N)nc21 [ETV, entecavir, reference compound] gave an HBVpgRNA mean change (HBV pgRNA; [2]) of −0.3 Log10 Copies mL and an HBcrAg mean change (HBcrAg; [2]) of 0.03 Log10 IU mL.

O=C(O)c1cc2c(Cl)c(N3CCN(S(=O)(=O)c4c(Cl)cccc4Cl)CC3)ccc2o1 [EYP001] showed an HBVpgRNA mean change (HBV pgRNA; [3]) of 0.5 Log10 Copies mL, an HBVpgRNA mean change (HBV pgRNA; [4]) of 0.4 Log10 Copies mL and an HBVpgRNA mean change (HBV pgRNA; [5]) of 0.2 Log10 Copies mL. The HBVpgRNA mean change (HBV pgRNA; [6]) was −0.1 Log10 Copies mL, the HBcrAg mean change (HBcrAg; [3]) was −0.3 Log10 IU mL and the HBcrAg mean change (HBcrAg; [4]) was 0.2 Log10 IU mL. For the same molecule, the HBcrAg mean change (HBcrAg; [5]) was 0.02 Log10 IU mL, the HBcrAg mean change (HBcrAg; [6]) was 1.2 Log10 IU mL and the “effect when used alone” value (HBV replication) was “do not show a significant effect”. For the same molecule, the “change in C4” value (FXR) was “decreases”, the “change in FGF19” value (FXR) was “increases” and the HBV viral load (HBV) was “reduces HBV viral load”. The “mean HBsAg decrease” value (HBsAg) was −0.1 log 10 IU/mL and the “pruritus, once a day versus twice a day” value [1] was “fewer pruritus occurs when EYP001 is administered once a day”.

Source: US20220313690A1, “SYNERGISTIC EFFECT OF EYP001 AND IFN FOR THE TREATMENT OF HBV INFECTION” (ENYO PHARMA, priority 2019, published 2022)
